Data published in ChEMBL document CHEMBL5528056, “BAY-9835: Discovery of the First Orally Bioavailable ADAMTS7 Inhibitor” (J Med Chem, 2024).
Values after ≈ are worked out from the molar mass of the structure shown.

Assays:
[1] = Selectivity ratio of IC50 for ADAMTS4 (unknown origin) to IC50 for ADAMTS7 (unknown origin)
[2] = Selectivity ratio of IC50 for MMP2 (unknown origin) to IC50 for ADAMTS7 (unknown origin)
[3] = Selectivity ratio of IC50 for MMP12 (unknown origin) to IC50 for ADAMTS7 (unknown origin)
[4] = Clearance in iv-dosed Wistar rat measured after 24 hrs by HPLC-MS/MS analysis; assay type: ADME; conditions: in vivo
Cytochrome P450 3A4 [5] = target: T1, Cytochrome P450 3A4 (Homo sapiens, UniProt P08684); test: Induction of CYP3A4 in human hepatocytes assessed as threshold concentration incubated for 48 hrs by qPCR analysis; assay type: ADME, cell-based, Hepatocyte
T1 sequence (P08684 whole entry): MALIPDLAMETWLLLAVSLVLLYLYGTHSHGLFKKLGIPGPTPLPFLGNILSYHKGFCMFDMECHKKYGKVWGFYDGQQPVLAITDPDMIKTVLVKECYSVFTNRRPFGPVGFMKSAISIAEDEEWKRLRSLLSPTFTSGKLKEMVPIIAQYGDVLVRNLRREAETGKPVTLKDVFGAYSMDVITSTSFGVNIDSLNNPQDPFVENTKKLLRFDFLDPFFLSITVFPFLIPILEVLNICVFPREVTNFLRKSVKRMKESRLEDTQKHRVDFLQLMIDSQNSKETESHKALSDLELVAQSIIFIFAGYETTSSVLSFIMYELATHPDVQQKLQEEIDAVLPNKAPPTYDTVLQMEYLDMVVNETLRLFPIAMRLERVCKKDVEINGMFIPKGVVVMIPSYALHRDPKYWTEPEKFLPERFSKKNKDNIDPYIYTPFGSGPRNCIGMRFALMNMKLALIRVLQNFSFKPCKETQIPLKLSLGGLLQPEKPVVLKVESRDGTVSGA

[6] = Solubility of compound in water at pH 7 measured after 24 hrs by HPLC analysis; assay type: physicochemical; conditions: buffer, pH 7, 24 h
[7] = Solubility of compound in FaSSIF measured after 24 hrs by HPLC analysis; assay type: ADME; conditions: simulated gi fluid
[8] = Solubility of compound in FeSSIF measured after 24 hrs by HPLC analysis; assay type: ADME; conditions: simulated gi fluid
[9] = Stability in aqueous solution at pH 1 to 7 measured after 24 hrs by HPLC analysis; assay type: physicochemical; conditions: buffer, pH 1, 24 h
[10] = Fraction unbound in mouse plasma; assay type: ADME, cell-free
[11] = Fraction unbound in dog plasma; assay type: ADME, cell-free, Canis lupus familiaris
Cytochrome P450 2C8 = target: T2, Cytochrome P450 2C8 (Homo sapiens, UniProt P10632); test: Inhibition of CYP2C8 in human liver microsomes using amodiaquin as substrate upto 20 uM by LC-MS/MS analysis; assay type: ADME, Microsome
T2 sequence (P10632 whole entry): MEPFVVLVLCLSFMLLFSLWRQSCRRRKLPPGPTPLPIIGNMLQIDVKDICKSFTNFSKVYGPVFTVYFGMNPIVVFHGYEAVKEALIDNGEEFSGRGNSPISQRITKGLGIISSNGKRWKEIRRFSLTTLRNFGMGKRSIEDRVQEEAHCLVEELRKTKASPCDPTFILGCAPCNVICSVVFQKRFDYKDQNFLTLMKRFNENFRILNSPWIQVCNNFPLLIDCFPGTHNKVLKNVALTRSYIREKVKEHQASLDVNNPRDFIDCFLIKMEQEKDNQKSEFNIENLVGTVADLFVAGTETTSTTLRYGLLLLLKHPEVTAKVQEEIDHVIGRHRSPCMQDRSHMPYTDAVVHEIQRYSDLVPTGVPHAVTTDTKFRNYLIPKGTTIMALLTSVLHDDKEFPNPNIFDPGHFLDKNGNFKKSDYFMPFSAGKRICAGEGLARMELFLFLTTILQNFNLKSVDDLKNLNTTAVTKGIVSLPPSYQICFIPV

Cytochrome P450 2D6 = Cytochrome P450 2D6 (Homo sapiens, UniProt P10635); test: Inhibition of CYP2D6 in human liver microsomes using dextromethorphan as substrate upto 20 uM by LC-MS/MS analysis; assay type: ADME, Microsome
Sequence of Cytochrome P450 2D6 (P10635 whole entry): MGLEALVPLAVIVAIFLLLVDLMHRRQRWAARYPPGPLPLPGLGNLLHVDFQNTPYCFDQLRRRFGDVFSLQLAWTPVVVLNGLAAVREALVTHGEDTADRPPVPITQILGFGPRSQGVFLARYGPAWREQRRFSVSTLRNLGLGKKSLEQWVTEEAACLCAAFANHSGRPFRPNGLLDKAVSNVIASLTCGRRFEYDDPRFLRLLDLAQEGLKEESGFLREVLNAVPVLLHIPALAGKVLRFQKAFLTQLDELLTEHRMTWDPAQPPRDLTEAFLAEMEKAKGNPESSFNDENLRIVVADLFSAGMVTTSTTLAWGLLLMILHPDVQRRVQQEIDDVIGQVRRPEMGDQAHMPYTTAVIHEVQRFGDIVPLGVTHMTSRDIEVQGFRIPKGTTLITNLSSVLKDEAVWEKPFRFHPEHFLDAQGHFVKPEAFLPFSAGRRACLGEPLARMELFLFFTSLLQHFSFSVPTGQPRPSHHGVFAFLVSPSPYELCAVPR

Cytochrome P450 3A4 [12] = target: T1, Cytochrome P450 3A4; test: Induction of CYP3A4 in human hepatocytes upto 61 uM incubated for 48 hrs by qPCR analysis; assay type: ADME, cell-based, Hepatocyte
[13] = target: Voltage-gated inwardly rectifying potassium channel KCNH2 (Homo sapiens, UniProt Q12809); test: Inhibition of hERG upto 10 uM by whole-cell voltage clamp method; assay type: toxicity
Sequence of Voltage-gated inwardly rectifying potassium channel KCNH2 (Q12809 whole entry, the tested form may be a part): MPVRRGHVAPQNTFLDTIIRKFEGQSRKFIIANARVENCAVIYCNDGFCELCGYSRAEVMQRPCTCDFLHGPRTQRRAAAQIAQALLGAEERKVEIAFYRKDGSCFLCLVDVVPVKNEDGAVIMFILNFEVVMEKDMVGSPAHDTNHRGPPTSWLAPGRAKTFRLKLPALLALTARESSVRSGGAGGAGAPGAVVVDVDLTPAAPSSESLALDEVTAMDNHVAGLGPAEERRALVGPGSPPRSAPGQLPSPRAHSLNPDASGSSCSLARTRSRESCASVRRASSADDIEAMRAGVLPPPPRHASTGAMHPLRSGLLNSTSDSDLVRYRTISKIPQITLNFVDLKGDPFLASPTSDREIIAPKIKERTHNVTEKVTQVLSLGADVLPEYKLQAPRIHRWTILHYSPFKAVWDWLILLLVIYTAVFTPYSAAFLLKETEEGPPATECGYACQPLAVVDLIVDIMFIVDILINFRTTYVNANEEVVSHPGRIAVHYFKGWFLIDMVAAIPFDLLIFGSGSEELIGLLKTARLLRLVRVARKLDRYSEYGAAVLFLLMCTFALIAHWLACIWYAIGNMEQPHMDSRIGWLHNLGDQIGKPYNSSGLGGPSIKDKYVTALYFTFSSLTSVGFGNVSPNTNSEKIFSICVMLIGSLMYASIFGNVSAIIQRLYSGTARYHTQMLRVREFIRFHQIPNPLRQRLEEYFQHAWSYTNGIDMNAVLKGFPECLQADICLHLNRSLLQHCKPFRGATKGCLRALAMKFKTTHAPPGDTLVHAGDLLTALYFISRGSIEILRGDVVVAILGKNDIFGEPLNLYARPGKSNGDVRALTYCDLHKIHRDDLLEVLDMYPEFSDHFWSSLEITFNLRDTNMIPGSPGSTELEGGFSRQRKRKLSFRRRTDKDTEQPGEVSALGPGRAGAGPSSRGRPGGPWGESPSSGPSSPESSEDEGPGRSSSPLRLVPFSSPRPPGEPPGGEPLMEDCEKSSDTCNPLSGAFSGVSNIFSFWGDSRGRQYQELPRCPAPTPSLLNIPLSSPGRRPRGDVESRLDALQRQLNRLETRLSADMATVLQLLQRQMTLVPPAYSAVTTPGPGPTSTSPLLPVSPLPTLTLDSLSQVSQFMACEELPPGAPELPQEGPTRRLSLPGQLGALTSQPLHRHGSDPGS

[14] = Selectivity ratio of IC50 for C-terminal 10His-tagged recombinant human ADAM10 (214 to 672 residues) expressed in baculovirus infected Sf21 cells using Dabcyl-SSNQLQRR-Glu(EDANS)-NH2 as substrate to IC50 for ADAMTS7 (unknown origin)
[15] = Lipophilicity, logD of compound at pH 7.5; assay type: physicochemical; conditions: buffer
[16] = Clearance in C57bl6 mouse at 0.3 mg/kg, iv measured for >24 hrs by HPLC-MS/MS analysis; assay type: ADME, organism-based; conditions: in vivo
[17] = Half life in C57bl6 mouse at 0.3 mg/kg, iv measured for >24 hrs by HPLC-MS/MS analysis; assay type: ADME, organism-based; conditions: in vivo
[18] = Tmax in C57bl6 mouse at 1 mg/kg, po measured for >24 hrs by HPLC-MS/MS analysis; assay type: ADME, organism-based; conditions: in vivo
[19] = Half life in C57bl6 mouse at 1 mg/kg, po measured for >24 hrs by HPLC-MS/MS analysis; assay type: ADME, organism-based; conditions: in vivo
[20] = Volume of distribution at steady state in Wistar rat at 0.3 mg/kg, iv measured for >24 hrs by HPLC-MS/MS analysis; assay type: ADME, organism-based; conditions: in vivo
[21] = Oral bioavailability in Wistar rat at 1 mg/kg measured for >24 hrs by HPLC-MS/MS analysis; assay type: ADME, organism-based; conditions: in vivo
[22] = Dose normalized AUC in Beagle dog at 0.3 mg/kg, iv measured for >24 hrs by HPLC-MS/MS analysis; assay type: ADME, organism-based, Canis lupus familiaris; conditions: in vivo
[23] = Clearance in Beagle dog at 0.3 mg/kg, iv measured for >24 hrs by HPLC-MS/MS analysis; assay type: ADME, organism-based, Canis lupus familiaris; conditions: in vivo
[24] = Volume of distribution at steady state in Beagle dog at 0.3 mg/kg, iv measured for >24 hrs by HPLC-MS/MS analysis; assay type: ADME, organism-based, Canis lupus familiaris; conditions: in vivo

Cn1nccc1[C@]1(CNC(=O)c2ccc(F)c(F)c2-c2ccc(C(F)(F)F)cc2)NC(=O)NC1=O
Ratio IC50 [1]: 1120 | Ratio IC50 [2]: 17300 | Ratio IC50 [3]: 896 | CL [4]: 10 mL/min/kg | Activity (Cytochrome P450 3A4 [5]): 18 µM | solubility [6]: 135 µg/mL (≈ 274 µM) | solubility [7]: 297 µg/mL (≈ 602 µM) | solubility [8]: 513 µg/mL (≈ 1040 µM) | Stability [9]: Stable | Fu [10]: 11% | Fu [11]: 5% | inhibition (INH) (Cytochrome P450 2C8): Not Active | inhibition (INH) (Cytochrome P450 2D6): Not Active | Activity (Cytochrome P450 3A4 [12]): Not Active | inhibition (INH) [13]: Not Active | Ratio IC50 [14]: 5470 | logD [15]: 3.2 | CL [16]: 18.3 mL/min/kg | t1/2 [17]: 2.1 h | Tmax [18]: 1 h | t1/2 [19]: 2.5 h | Vdss [20]: 1.2 L/kg | F [21]: 96% | AUC/dose [22]: 88 kg·h/L | CL [23]: 0.33 mL/min/kg | Vdss [24]: 0.4 L/kg
